The numbers were not newly measured in patent US9028802B2, “Method of differentially diagnosing different types of dementia” (Koninklijke Philips Electronics N.V., priority 2007, dated 2015), which cites them from elsewhere.

This series has as its target T1, Dopamine Transporter (DAT) (Homo sapiens, UniProt Q01959).
T1 construct: those areas of the brain in which Dopamine Transporters (DAT) are localized, such as the nigrostriatum; from tissue; host or cells: brain (nigrostriatum) of the living subject, in vivo SPECT
The following applies: SPECT tracer, time point x2 after administration; 'typically'.

T1 sequence (Q01959 whole entry): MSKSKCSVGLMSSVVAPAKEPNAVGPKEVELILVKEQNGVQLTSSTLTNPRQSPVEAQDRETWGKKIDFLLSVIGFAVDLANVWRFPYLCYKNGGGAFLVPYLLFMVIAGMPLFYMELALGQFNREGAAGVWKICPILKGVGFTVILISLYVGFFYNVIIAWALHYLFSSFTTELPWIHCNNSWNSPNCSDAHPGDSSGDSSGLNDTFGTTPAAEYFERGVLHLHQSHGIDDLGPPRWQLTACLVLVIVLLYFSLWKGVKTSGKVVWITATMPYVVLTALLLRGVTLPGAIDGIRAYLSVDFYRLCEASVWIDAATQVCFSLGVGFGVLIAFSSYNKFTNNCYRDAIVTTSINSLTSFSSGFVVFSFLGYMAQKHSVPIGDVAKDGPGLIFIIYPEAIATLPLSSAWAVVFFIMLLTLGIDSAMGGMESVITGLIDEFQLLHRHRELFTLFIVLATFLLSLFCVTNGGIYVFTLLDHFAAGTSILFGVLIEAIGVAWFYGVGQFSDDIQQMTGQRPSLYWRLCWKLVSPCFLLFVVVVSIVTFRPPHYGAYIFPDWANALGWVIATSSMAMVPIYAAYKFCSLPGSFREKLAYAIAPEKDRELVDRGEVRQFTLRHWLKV

For `COC(=O)C1C2CCC(C[C@@H]1c1ccc(I)cc1)N2CCCF` (stereo partly shown) [Datscan], the “time period after which association with Dopamine Transporters is observed” value was “three to four”.
